Test results: patent US20230381082A1, “PHOTOPROTECTIVE COSMETIC COMPOSITIONS COMPRISING XANTHOMMATIN AS AN ANTIOXIDANT AND UV-FILTER STABILIZER” (SEASPIRE, INC., priority 2020, published 2023)
Converted amounts (≈) assume the structure as drawn. “And” between values parts separate entries of the source, which are not always exact repeats. Equal entries are not always repeated. “Also recorded” adds a separate entry of the source. Where two headings read alike, the source gives them in different places.

Columns and labels:
[1] = Oxygen Radical Antioxidant Capacity (ORAC) assay; settings: for AUC: single antioxidant, 40 uM; for antioxidant activity/capacity compared to known standards (Trolox, vitamin C): 90 minutes at 37° C.
From the text: The ORAC assay measures the antioxidant capacity of biomolecules based on the oxidation of a fluorescein probe by peroxyl radicals (Fluorescence decreases as antioxidant capacity decreases).
The antioxidant properties of ammonium xanthommatin (referred to herein as “xanthommatin”) in an unsaturated solution were compared to known standard antioxidants. The results of the experiments are provided in FIGS. 1-3, illustrating the relative fluorescence value (RFU) over time (in seconds) for known antioxidants Trolox (a vitamin E analogue) and ascorbic acid compared to xanthommatin. Experiments were performed using 10, 20, and 40 μM Trolox, ascorbic acid, and ammonium xanthommatin (“Xa”) and compared to performance of 1:1 Trolox:Xa (20 μM: 20 μM and 40 μM: 40 μM) and 1:1 ascorbic acid:Xa (20 μM: 20 μM and 40 μM: 40 μM).
For antioxidant stabilizing/boosting experiments, the antioxidizing capacity and performance of ammonium xanthommatin only and ammonium xanthommatin blended with equimolar ascorbic acid (vitamin C) or Trolox (a vitamin E analogue) over 90 minutes at 37° C. were tested using a standard Oxygen Radical Antioxidant Capacity (ORAC) Assay. The ORAC assay measured the antioxidant capacity of biomolecules based on the oxidation of a fluorescein probe by peroxyl radicals (Fluorescence decreases as antioxidant capacity decreases). The ORAC assay is described in detail at https://www.cellbiolabs.com/sites/default/files/STA-345-orac-assay-kit.pdf, the contents of which are incorporated by reference herein. […] FIG. 19 provides half life measurements of ammonium xanthommatin in solution compared to vitamin C in solution when assayed at the same concentration. […] FIGS. 20 and 21, respectively, show the performance of vitamin C and vitamin E is extended when combined with ammonium xanthommatin.

[2] = UV-boosting properties: UV absorption of chemical UV filters alone and in combination; assay type: physicochemical; settings: for reduction of avobenzone UV-A performance: filter combined with avobenzone
From the text: FIGS. 9-11 show the UV absorption behavior of chemical UV filters octinoxate, avobenzone, and oxybenzone, alone, in combination with avobenzone, and in combination with xanthommatin small molecules in unsaturated solution (0.03 wt %).

[3] = tested on: BALB/c 3T3 mouse fibroblast cell lines; test: in vitro 3T3 NRU phototoxicity assay; assay type: cell-based
Experimental: Given the UV filter-boosting features of xanthommatin, we next tested its cytotoxicity with and without exposure to a noncytotoxic dose of UVA light (from 315 to 400 nm and a measuring range between 0-199.9 mW/cm2). In these experiments, cytotoxicity was expressed as a concentration dependent reduction of a neutral red dye uptake within BALB/c 3T3 mouse fibroblast cell lines after treatment both with and without the presence of UVA exposure. […] Instead, the mean photo effect was calculated using Equation 5,
where, the photo effect (PE) at any concentration (C) is defined as the product of the response effect (REC) and the dose effect (DEC) concentrations. MPE values of 0.019, 0.199, and 0.042 were measured for the three independent experiments with xanthommatin. […] In this figure, the grey lines represent data collected in the absence of UVA (−UVA), and the black lines represent data collected with exposure to UVA (+UVA). Data was collected for three independent experiments.
Since the toxicological endpoint of this in vitro 3T3 NRU phototoxicity assay was developed and validated in a joint EU/COLIPA project, this assay is a well-recognized in vitro alternative to the various in vivo tests in use.

[4] = UV-filter stabilizing properties: UV absorption of chemical UV filters with xanthommatin, day 1 and day 16; assay type: physicochemical; settings: xanthommatin at about 0.01 wt %
From the text: This boost in stability in the presence of unsaturated solutions of xanthommatin was consistent across all chemical filters tested, including homosalate, octisalate, octocrylene, oxybenzone, and octinoxate. Between 10-100% UV filtering retention was observed over the course of weeks. Solutions including unsaturated solutions of one or more phenoxazone and/or phenoxazine compound, a precursor or derivative thereof, or a salt of any of the foregoing (e.g., xanthommatin, a precursor or derivative thereof, or a salt of any one of the foregoing, such as ammonium xanthommatin) may also boost the stability of UV-filters in the presence of solar simulated light, or solar light.
The UV-filter stabilizing properties of unsaturated solutions of xanthommatin were explored by comparing the behavior of UV-filter stabilizers over time to UV-filter stabilizers in combination with xanthommatin. As shown in FIGS. 4-8, the addition of unsaturated solutions of xanthommatin to solutions including oxybenzone (FIGS. 4A and 4B), avobenzone (FIGS. 5A and 5B), octi and homo-salate (FIGS. 6A and 6B), octinoxate (FIGS. 7A and 7B) and octocrylene (FIGS. 8A and 8B) increased the UV absorption between about 240 and about 310 nm on day 1, relative to the chemical UV filters alone. […]

[5] = Absorbance of xanthommatin alone and with FDA approved organic UV filters, 280-500 nm; assay type: physicochemical; settings: 0.6 mM in DMSO
Experimental: The performance of ammonium xanthommatin was tested as a broad-spectrum absorber to assess whether the natural optical features of xanthommatin could be used to boost the UV performance of low (<0.2 mM) concentrations of organic UV filters. Xanthommatin's absorbance capabilities were tested alone in solution (FIG. 14) and in combination with FDA approved organic UV filters (FIGS. 15 and 16) over a spectral range of 280-500 nm. We observed a clear relationship between increasing concentrations of xanthommatin and the absorption of UV through visible light (FIG. 14). […] When xanthommatin was combined with the chemical UV filters, a significant increase in both the UVB (300 nm) and UVA (360 nm) range was achieved across all filters tested, where we observed at least a 50% increase in UVA and B performance upon addition with xanthommatin (FIG. 16).

[6] = SPF and critical wavelength of xanthommatin in solution; assay type: physicochemical
From the text: In certain embodiments, the compositions of the present application provide sun protection. In certain embodiments, the compositions provide an SPF of at least about 15, 30, 60, 100, or other suitable amount of protection. In certain embodiments, the amount of phenoxazone and/or phenoxazine compound, a precursor or derivative thereof, or a salt of any of the foregoing (e.g., xanthommatin, a precursor or derivative thereof, or a salt of any one of the foregoing, such as ammonium xanthommatin) in the composition may be altered or adjusted in order to provide a particular SPF. In certain embodiments, the amount of UV-filtering material (e.g., a UV-absorbing compound or a UV-scattering particle) in the composition may be altered or adjusted in order to provide a particular SPF. […]
SPF was calculated using the derived Mansur equation (Sayre, R. M., et al., A comparison of in vivo and in vitro testing of sunscreening formulas. Photochemistry and Photobiology, 1979. 29(3): p. 559-566) according to Equation 1, SPF=CFΣ290^320EE(λ)I(λ)Abs(λ), where EE (λ) represents the erythemal effect spectrum; I(λ) is solar intensity spectrum; Abs(a) absorbance of UV-filter; CF is the correction factor (=10). […] The calculated SPF values were rounded to the nearest whole number. […]

[7] = avobenzone combinations, Xa 0.03 wt %

In the case of O=C1O[C@H]([C@@H](O)CO)C(O)=C1O [AA, ascorbic acid, reference compound], the AUC [1] is reported as 55.

With COc1ccc(C(=O)c2ccccc2)c(O)c1 [Oxy control, oxybenzone] the “reduction of avobenzone UV-A performance” value [2] was “about 46%”, the “UV absorption 290 nm” value ([2]; oxybenzone, Xa 0.03 wt %) was 2 and the “UV absorption 360 nm” value ([2]; oxybenzone, Xa 0.03 wt %) was 0.31.

Cc1c(C)c2c(c(C)c1O)CCC(C)(C(=O)O)O2 (centres unmarked) [Trolox, reference compound] showed an AUC [1] of 55.

For COc1ccc(C(=O)CC(=O)c2ccc(C(C)(C)C)cc2)cc1 [avo control, avobenzone], the “UV absorption 300 nm” value [2, 7] was 0.31 and the “UV absorption 360 nm” value [2, 7] was 1.49.

For CN(C)CCCN1c2ccccc2Sc2ccc(Cl)cc21 [chlorpromazine, reference compound], the EC50 ([3]; Mus musculus, BALB/c3T3, light or radiation study, +UVA, exp. 1, read-out: EC50) was 0.221 µg/mL (≈ 0.693 µM) and the “PIF (photo-irritation-factor = EC50 (−UVA)/EC50(+UVA))” value ([3]; exp. 1-3) was 37.81 and 37.74 and 40.33.

In the case of CCCCC(CC)COC(=O)C=Cc1ccc(OC)cc1 (centres unmarked) [octinox control, octinoxate], the “reduction of avobenzone UV-A performance” value [2] is reported as ~56%, the “UV absorption 310 nm” value ([2]; octinoxate, Xa 0.03 wt %) is reported as 2.53 and the “UV absorption 360 nm” value ([2]; octinoxate, Xa 0.03 wt %) is reported as 0.

For NC(CC(=O)c1cccc2oc3cc(=O)c4[nH]c(C(=O)O)cc(=O)c4c-3nc12)C(=O)O (centres unmarked) [xanthommatin, Ammonium xanthommatin], the “antioxidant activity/capacity compared to known standards (Trolox, vitamin C)” value [1] was “comparable activity to vitamin c and vitamin e; also recorded: comparable anti-oxidizing capacity to known antioxidant standards”, the “antioxidant activity/capacity compared to known standards (Trolox, vitamin C)” value ([1]; listed as ammonium xanthommatin) was “comparable antioxidizing capacity to known antioxidant standards” and the “half life in solution compared to vitamin C” value ([1]; assayed at the same concentration) was “two times longer than vitamin C”. The “relative fluorescence value (RFU) over time” value ([1]; compared to antioxidant alone, 10, 20, 40 μM) was “maintain a high RFU value for greater lengths of time”, the “extension of the performance of vitamin C when combined with ammonium xanthommatin” value ([1]; equimolar blend) was 23% and the “extension of the performance of vitamin E when combined with ammonium xanthommatin” value ([1]; equimolar blend) was 9%. The AUC [1] was 56, the “effect on UV absorption and stability of chemical UV filters” value [4] was “enhances the UV absorption properties of the chemical UV filters and stabilizes the chemical UV filters over time” and the “boost of performance of avobenzone” value ([2]; xanthommatin at 0.03 wt %) was “up to 109%”. The “enhancement of UVB absorbing power of octinoxate and oxybenzone” value ([2]; xanthommatin at 0.03 wt %, in some cases) was “more than 250%”, the “boost of activity of avobenzone in UV-A (360 nm)” value ([2]; xanthommatin at about 0.03 wt %) was “about 9%” and the “boost of activity/performance of avobenzone in UV-B (300 nm)” value ([2]; xanthommatin at about 0.03 wt %, or second filter) was ~250%. The “absorption profile compared to pure organic UV filters” value [5] was “broader profile that spanned the UVB through visible light regions”, the phototoxicity classification [3] was “not phototoxic; also recorded: neither phototoxic nor a photoirritant” and the EC50 ([3]; −UVA) was “no EC50-value could be calculated”. For the same compound, the “relative cell viability at the highest test item concentration” value ([3]; −UVA controls, three independent experiments) was 88.5% and 99.3% and 100.6% and the critical wavelength [6] was 385 nm.
